Source: patent US20250129096A1, “ANNULATED 2-AMINO-3-CYANO THIOPHENES AND DERIVATIVES FOR THE TREATMENT OF CANCER” (Boehringer Ingelheim Int'l GmbH Corp., priority 2021, published 2025)

Legend:
[1] = Metabolic (microsomal) stability assay, HLM; assay type: in vitro ADME; details: human liver microsomes, 1 μM test compound, predicted clearance as percent of liver blood flow
Method: The metabolic degradation of the test compound is assayed at 37° C. with pooled liver microsomes (mouse (MLM), rat (RLM) or human (HLM)). The final incubation volume of 48 μL per time point contains TRIS buffer (pH 7.5; 0.1 M), magnesium chloride (6.5 mM), microsomal protein (0.5 mg/mL for mouse/rat, 1 mg/mL for human specimens) and the test compound at a final concentration of 1 μM. Following a short preincubation period at 37° C., the reactions are initiated by addition of 12 μL beta-nicotinamide adenine dinucleotide phosphate, reduced form (NADPH, 10 mM) and terminated by transferring an aliquot into solvent after different time points (0, 5, 15, 30, 60 min). Additionally, the NADPH-independent degradation is monitored in incubations without NADPH, terminated at the last time point by addition of acetonitrile. The quenched incubations are pelleted by centrifugation (4,000 rpm, 15 min). An aliquot of the supernatant is assayed by LC-MS/MS to quantify the concentration of parent compound in the individual samples.
In vitro intrinsic clearance (CLint, in vitro) is calculated from the time course of the disappearance of the test drug during the microsomal incubation. Each plot is fitted to the first-order elimination rate constant as C(t)=C0*exp(−ke*t), where C(t) and C0 are the concentration of unchanged test drug at incubation time t and that at preincubation and ke is the disappearance rate constant of the unchanged drug. Subsequently, CLint, in vitro (μL min^−1·amount protein) values are converted to predicted CLint, in vivo (mL min^−1 kg^−1) from incubation parameters according to the equation CLint, in vivo=CLint, in vitro×(incubation volume (ml)/amount protein (mg))×(amount protein (mg)/g liver tissue)×(liver weight/body wt.). For better across species comparison the predicted clearance is expressed as percent of the liver blood flow [% QH] (mL min^−1 kg^−1) in the individual species. In general, high stability (corresponding to low % QH) of the compounds across species is desired.

[2] = test system: SAS cells (HNSCC, wt amplified); assay: SAS CTG proliferation assay (120 h); assay type: cell-based; details: CellTiter-Glo
Method: (§1) SAS cells (JCRB0260) are dispensed into 384-well plates, flat and clear bottom (Greiner, PNr. 781091) at a density of 300 cells per well in 60 μL DMEM:F12 (Gibco 31330-038)+10% Fetal Calf Serum (HyClone, PNr.: SH30084.03) and incubated at 37° C. in a CO2 incubator overnight. The next day, compounds (10 mM stock in DMSO) are added with the ECHO acoustic liquid handler system (Beckman Coulter), including DMSO controls. Plates are incubated for 120 h, and cell viability is measured using CellTiter-Glo luminescent cell viability reagent (Promega product code G7570). Viability (stated as percent of control) is defined as relative luminescence units RLU of each well divided by the RLU of cells in DMSO controls. IC50 values are determined from viability measurements by non-linear regression using a four-parameter model.

[3] = test system: SK-CO-1 cells (CRC, G12V); assay: SK-CO-1 CTG proliferation assay (120 h); assay type: cell-based; details: Homo sapiens, CellTiter-Glo
Method: as §1, with “SK—CO-1 cells (ATCC” for “SAS cells (JCRB0260)”, “SK—CO-1 cells (ATCC HTB-39) are dispensed” for “SAS cells (JCRB0260) are dispensed”, “density of 500 cells per” for “density of 300 cells per”, “60 μL EMEM (Sigma M5650)+10% Fetal Calf” for “60 μL DMEM:F12 (Gibco 31330-038)+10% Fetal Calf”

[4] = test system: NCI-H2122 cells (NSCLC, G12C); assay: NCI-H2122 CTG proliferation assay (120 h); assay type: cell-based; details: Homo sapiens, CellTiter-Glo
Method: The CTG assay is designed to measure quantitatively the proliferation of NCI-H2122 cells (ATCC CRL-5985), using the CellTiter Glow Assay Kit (Promega G7571). Cells are grown in RPMI medium (ATCC) supplemented with Fetal Calf Serum (Life Technologies, Gibco BRL, Cat. No. 10270-106). On “day 0” 200 NCI-H2122 cells are seeded in 60 μL RPMI ATCC+10% FCS+ Penstrep in a black 384-well plate, flat and clear bottom (Greiner, PNr. 781091). Cells are then incubated in the plates at 37° C. in a CO2 incubator overnight. On day 1, compounds (10 mM stock in DMSO) are added with the ECHO acoustic liquid handler system (Beckman Coulter), including DMSO controls. Plates are incubated for 120 h, and cell viability is measured using CellTiter-Glo luminescent cell viability reagent (Promega product code G7570). Viability (stated as percent of control) is defined as relative luminescence units RLU of each well divided by the RLU of cells in DMSO controls. IC50 values are determined from viability measurements by non-linear regression using a four-parameter model.

Row | HLM QH [1] | IC50 [3] | IC50 [4] | SMILES | IC50 [2]
1 | <24% | 563 nM | 6360 nM | C[C@H]1CNCCCN1c1nccc(-c2noc3c2CCC[C@@]32CCCc3sc(N)c(C#N)c32)n1 (single isomer, unassigned) [IIb-5] | 541 nM
2 | <24% | 2690 nM | 3920 nM | CC1Cc2c(-c3ccnc(N4CCCNC[C@@H]4C)n3)noc2C2(CCCc3sc(N)c(C#N)c32)C1 (stereo partly drawn) [IIb-1] | 8230 nM
3 | 39% | 6240 nM | 4850 nM | C[C@H]1CNCCCN1c1nccc(-c2noc3c2CC(F)(F)CC32CCCc3sc(N)c(C#N)c32)n1 (stereo partly drawn) [IIb-2] | 2960 nM
4 | 64% | 285 nM | – | C[C@H](Oc1ccnc(-c2noc3c2CCC[C@@]32CCCc3sc(N)c(C#N)c32)n1)[C@@H]1CCCN1C [IIb-3] | 4960 nM
5 | – | 2390 nM | 4020 nM | C[C@H]1CNCCCN1c1nccc(-c2noc3c2CSCC32CCCc3sc(N)c(C#N)c32)n1 (stereo partly drawn) [IIb-4] | 8080 nM
6 | <24% | 455 nM | 1940 nM | C[C@H]1CNCCCN1c1nccc(-c2noc3c2OCCC32CCCc3sc(N)c(C#N)c32)n1 (stereo partly drawn) [IIb-7] | 6600 nM
7 | >88% | 1030 nM | 6380 nM | C[C@H](Oc1nccc(-c2noc3c2CCC[C@@]32CCCc3sc(N)c(C#N)c32)n1)[C@@]1(C)CCCN1C [IIe-1] | 4530 nM
8 | 51% | 457 nM | 8350 nM | C[C@@H]1NCCCN(c2nccc(-c3onc4c3CCC[C@@]43CCCc4sc(N)c(C#N)c43)n2)[C@H]1C [Ib-2] | 1090 nM
9 | 34% | 930 nM | > 25000 nM | C[C@H]1CNCCCN1c1ncnc(-c2onc3c2CCC[C@@]32CCCc3sc(N)c(C#N)c32)n1 [Ib-4] | 57 nM
10 | >88% | 4680 nM | 9460 nM | C[C@H]1[C@@H]2CCCN2CCCN1c1nccc(-c2onc3c2CCC[C@@]32CCCc3sc(N)c(C#N)c32)n1 [Id-1] | 3990 nM
11 | >88% | 2520 nM | 1500 nM | CO[C@@H]1C[C@@H]([C@H](C)Oc2nccc(-c3onc4c3CCC[C@@]43CCCc4sc(N)c(C#N)c43)n2)N(C)C1 [Ie-1] | 13600 nM
12 | >88% | 1040 nM | 1620 nM | C[C@H](Oc1nccc(-c2onc3c2CCC[C@@]32CCCc3sc(N)c(C#N)c32)n1)[C@@H]1C[C@@H](F)CN1C [Ie-2] | 8000 nM
13 | >88% | 817 nM | 5260 nM | CCN1[C@H]2C[C@H]2C[C@H]1[C@H](C)Oc1nccc(-c2onc3c2CCC[C@@]32CCCc3sc(N)c(C#N)c32)n1 [Ie-3] | 370 nM
14 | 63% | 798 nM | 1220 nM | CC(Oc1nccc(-c2onc3c2CCC[C@@]32CCCc3sc(N)c(C#N)c32)n1)C12CCCN1CCC2 (stereo partly drawn) [Ie-5] | 1710 nM
15 | 25% | 2730 nM | 10700 nM | C[C@H]1CNCCCN1c1nccc(-c2onc3c2CCC[C@@]32CCCc3sc(N)c(C#N)c32)n1 [If-1] | 8270 nM
16 | – | 7920 nM | > 25000 nM | C[C@H](Oc1nccc(-c2onc3c2CCC[C@@]32CCCc3sc(N)c(C#N)c32)n1)[C@@H]1C[C@@H]2C[C@@H]2N1 [If-2] | 8840 nM
17 | >88% | 398 nM | 7810 nM | C[C@H](Oc1nccc(-c2onc3c2CCC[C@@]32CCCc3sc(N)c(C#N)c32)n1)[C@@H]1C[C@@H]2C[C@@H]2N1C [Ih-1] | 428 nM

Row | SMILES | HLM QH [1] | IC50 [3] | IC50 [4] | IC50 [2]
18 | C[C@H]1CNCCN1c1nccc(-c2noc3c2CCC[C@@]32CCCc3sc(N)c(C#N)c32)n1 [IIf-1] | 29% | 600 nM | 2860 nM | 1380 nM
